Experimental data from patent US4912036A, “Rapid differentiation of bacteria using cyclic polypeptide antibiotics” (Eastman Kodak Company, priority 1986, dated 1990).

Assays:
S. aureus [1] = experiment: RIND XXIX reduction solution assay, Δ fluorescence; assay type: cell-based, Staphylococcus aureus; conditions: S. aureus (gram +) about 5×10^7 cells/ml, gramicidin S 0.1 mg/ml, 37° C.
Method: (§1) Bacterial suspensions were prepared by growing the cells in BHT broth to stationary phase overnight at 37° C. P. auruginosa was grown with agitation. About 40 ml of each overnight culture was centrifuged, decanted and washed once with 0.05 molar potassium phosphate buffer or 0.05 molar N-2-hydroxy-ethylpiperazine-N'-2-ethanesulfonic acid (HEPES) buffer, pH 7.8, and resuspended in buffer.
Dispersions containing RIND compounds were prepared by dissolving the RIND compound in N,N-dimethylformamide (DMF) at 16 mg compound per ml of solvent. An aliquot (250 μl) of the resulting solution was added to 500 μl of TRITON X-100 surfactant. This mixture was then added dropwise with stirring to 25 ml of 0.05 molar HEPES buffer. A dispersion of RIND XXIX was prepared similarly except that DMF was acidified with 0.1% sulfuric acid. […]
(§2) The solutions were incubated at 37° C. for 30 minutes, and the change in fluorescence emission (Δ fluorescence) was determined as the difference between the readings taken when the solutions were first mixed and then after 30 minutes incubation. Measurements were made in a commercially available MICROFLUOR Reader (available from Dynatech Laboratories, Alexandria, Virginia, U.S.A.), modified with an excitation filter at 540 nm, an emission filter at 620 nm and a Xenon lamp.

S. aureus [2] = experiment: RIND VII reduction solution assay, ΔOD 635 nm; assay type: cell-based, Staphylococcus aureus; conditions: S. aureus 7 × 10^7 /ml, antibiotic 10^-4 molar
Method: as §1
TERGITOL 7 anionic surfactant was used to differentiate viable bacteria according to the prior art method. Various concentrations of TERGITOL 7 surfactant were mixed with a 10% glucose solution (50 μl), 3-(4,5-dimethyl-2-thiazolyl)-2,5-diphenyl-2N-tetrazolium bromide (MTT) (25 μl at 5 mg/ml methanol) or a RIND VII dispersion (1.5 ml) and phenazine methosulfate ETA (25 μl at 3 mg/ml methanol). The volume of each test solution was brought to 3 ml with potassium phosphate buffer. A cell suspension (100 μl at about 10^8 cells/ml) was then added. The solutions were incubated at 37° C. for 15 and 30 minutes in the presence of either E. coli, a gram(-) bacterium, or S. aureus, a gram(+) bacterium. The amount of dye formed was then determined visually, and graded as follows: "O" indicates no dye formation, +/- indicates faint dye formation, 1+ indicates light dye formation, 2+ indicates moderate dye formation, 3+ indicates strong dye formation, and 4+ indicates very strong dye formation. […]

P. vulgaris = experiment: RIND XXIX reduction solution assay, Δ fluorescence; assay type: cell-based, Proteus vulgaris; conditions: P. vulgaris (gram -) about 5×10^7 cells/ml, gramicidin S 0.1 mg/ml, 37° C.
Method: as §1
Dispersions containing RIND compounds were prepared by dissolving the RIND compound in N,N-dimethylformamide (DMF) at 16 mg compound per ml of solvent. An aliquot (250 μl) of the resulting solution was added to 500 μl of TRITON X-100 surfactant. This mixture was then added dropwise with stirring to 25 ml of 0.05 molar HEPES buffer. A dispersion of RIND XXIX was prepared similarly except that DMF was acidified with 0.1% sulfuric acid. Compositions containing water-compatible RIND compounds were prepared as described above except the surfactant was omitted.
Each test solution contained the following: dispersion of RIND XXIX (25 μl) prepared as described above, glucose (400 μl of 10% aqueous solution), tryptose (400 μl of 10% aqueous solution), trimethyl-1,4-benzoquinone ETA (500 μl of 1.5 mg/ml methanol). Aliquots (200 μl) of the mixture were mixed with solutions of the antibiotics (50 μl). The cell suspensions (50 μl) were then added. The final concentration of gramcidin S and tyrocidin were 0.1 mg/ml and 3.3 mg/ml, respectively. The final cell concentration was about 5×10^7 cells/ml. Cell control solutions contained all reagents except antibiotics. Background controls consisted of both buffer and solution controls. […]
as §2, with “lamp. […]” for “lamp.”

E. cloacae = experiment: DCIP reduction solution assay, ΔOD 620 nm; assay type: cell-based, Enterobacter cloacae; conditions: E. cloacae (-) 5×10^7, gramicidin S 0.00625 mg/ml, 37° C.
Method: (§3) These examples illustrate the differentiation of bacteria using a tetrazolium salt and phenolic dye as the reducible compounds and two cyclic polypeptide antibiotics according to the present invention. The tetrazolium salt was 3-(4,5-dimethyl-2-thiazolyl) -2,5-diphenyl-2H-tetrazolium bromide (MTT) which forms a colored formazan dye when reduced. The phenolic dye was 2,6-dichloroindophenol (DCIP) which forms a colorless species when reduced.
(§4) Solutions of the reducible compounds were prepared with the following: HEPES buffer (3 ml, 0.05 molar, pH 7.5), TRITON X-100 nonionic surfactant (1% concentration), glucose (50 μl of 10% in water), tryptose (50 μl of a 10% solution in water), MTT (25 μl of 5 mg/ml methanol) or DCIP (25 μl of 3 mg/ml methanol) and phenazine methosultate ETA (25 μl of 3 mg/ml methanol).
(§5) Test solutions were prepared from the following: reducible compound solution from above (200 μl), 50 μl of either gramicidin S solution (6 mg/ml methanol and 9 ml of buffer) or tyrocidin solution (100 mg/ml methanol and 8 ml of buffer) and 50 μl of cell suspension. […] The change in optical density (ΔOD) was determined after 30 minutes at 37° C. at 540 nm for the MTT assay and at 620 nm for the DCIP assay using a commercially available spectrophotometer.

S. faecalis = experiment: DCIP reduction solution assay, ΔOD 620 nm; assay type: cell-based, Streptococcus faecalis; conditions: S. faecalis (+) 5×10^7, gramicidin S 0.00625 mg/ml, 37° C.
Method: as §3, §4, §5

K. pneumoniae = experiment: DCIP reduction solution assay, ΔOD 620 nm; assay type: cell-based, Klebsiella pneumoniae; conditions: K. pneumoniae (-) 5×10^7, gramicidin S 0.00625 mg/ml, 37° C.
Method: as §3, §4, §5

[3] = system: viable gram-positive and gram-negative bacteria; experiment: Differentiation with dry analytical element, overall result; assay type: cell-based; conditions: dry analytical element with RIND IX
Method: The element used had the format and components illustrated below
The appropriate cell suspension (10 μl) was applied to the spreading/reagent layer of each element. The reflection density (DR) was measured at 640 nm. After 10 minutes of incubation at 37° C., the DR was again measured, giving a ΔDr value. A Control solution (10 μl of either 0.5 molar HEPES or potassium phosphate buffer) was also applied to the elements and the ΔDR was similarly determined. The difference between the two ΔDR values gives a test value corrected for background.

gramicidin S
Δ Fluorescence (30 Minutes) (S. aureus [1]): 0478
Corrected ΔOD (15 Minutes) (S. aureus [2]): 0.107
Δ Fluorescence (30 Minutes) (P. vulgaris): 3491
ΔOD, 620 nm after 30 Minutes (E. cloacae): 0.997
ΔOD, 620 nm after 30 Minutes (S. faecalis): 0.066
ΔOD, 620 nm after 30 Minutes (K. pneumoniae): 1.062
differentiation between viable gram-positive and gram-negative bacteria in an element, in words [3]: can be used in an element to differentiate between viable gram-positive and gram-negative bacteria
